Measurements from US20050009840A1 (SUGEN, INC., priority 2003, published 2005).
Where a name gives a salt, the structure may show the parent alone.
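Note: Cell-free ELISA with plate-bound poly(Glu:Tyr 4:1) phosphorylated by GST-fused Met kinase domain plus ATP and Mn2+, phosphotyrosine detected by anti-phosphotyrosine antibody with HRP and ABTS read-out.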

The compounds below were run against T1, Met kinase domain (GST fusion protein) (Homo sapiens, UniProt P08581) (assay: Met transphosphorylation assay (ELISA, poly(glu-tyr) substrate)). Conditions: read-out: Met IC50.
T1 construct: Purified GST fusion protein containing the Met kinase domain
T1 sequence (P08581 1078-1345 limits assumed): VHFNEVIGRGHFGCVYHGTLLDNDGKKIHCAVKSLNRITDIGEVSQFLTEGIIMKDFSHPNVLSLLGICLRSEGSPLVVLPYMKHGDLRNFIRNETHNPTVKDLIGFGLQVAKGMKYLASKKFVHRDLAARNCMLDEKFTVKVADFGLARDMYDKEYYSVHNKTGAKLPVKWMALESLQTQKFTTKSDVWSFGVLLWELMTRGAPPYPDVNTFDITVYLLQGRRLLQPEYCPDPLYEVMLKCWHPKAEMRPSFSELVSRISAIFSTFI
Type: biochemical
`CC(Oc1nc(-c2ccc(C(=O)N3C[C@@H](C)N[C@@H](C)C3)cc2)cnc1N)c1c(Cl)ccc(F)c1Cl` (stereo partly drawn) [II-155, (4-{5-Amino-6-[1-(2,6-dichloro-3-fluoro-phenyl)-ethoxy]-pyrazin-2-yl}-phenyl)-((3R,5S)-3,5-dimethyl-piperazin-1-yl)-methanone] gave an IC50 of 95 nM. Compound `CC(Oc1nc(-c2ccc(C(=O)N3CCC(N4CCCC4)CC3)cc2)cnc1N)c1c(Cl)cccc1Cl` (stereo not drawn) [II-157, (4-{5-Amino-6-[1-(2,6-dichloro-phenyl)-ethoxy]-pyrazin-2-yl}-phenyl)-(4-pyrrolidin-1-yl-piperidin-1-yl)-methanone] has an IC50 of 160 nM. For `CC(Oc1nc(-c2ccc(C(=O)NCCN3CCOCC3)cc2)cnc1N)c1c(Cl)cccc1Cl` (stereo not drawn) [II-158, 4-{5-Amino-6-[1-(2,6-dichloro-phenyl)-ethoxy]-pyrazin-2-yl}-N-(2-morpholin-4-yl-ethyl)-benzamide], the IC50 was 320 nM. For `CC(Oc1nc(-c2ccc(C(=O)N3C[C@@H](C)N[C@@H](C)C3)cc2)cnc1N)c1c(Cl)cccc1Cl` (stereo partly drawn) [II-159, (4-{5-Amino-6-[1-(2,6-dichloro-phenyl)-ethoxy]-pyrazin-2-yl}-phenyl)-((3R,5S)-3,5-dimethyl-piperazin-1-yl)-methanone], the IC50 was 140 nM. In the case of `CC(Oc1nc(-c2ccc(C(=O)NC3CCN(C)CC3)cc2)cnc1N)c1c(Cl)cccc1Cl` (stereo not drawn) [II-160, 4-{5-Amino-6-[1-(2,6-dichloro-phenyl)-ethoxy]-pyrazin-2-yl}-N-(1-methyl-piperidin-4-yl)-benzamide], the IC50 is reported as 120 nM. Compound `CC(Oc1nc(-c2ccc(C(=O)N3CCC[C@@H]3CN3CCCC3)cc2)cnc1N)c1c(Cl)cccc1Cl` (stereo partly drawn) [II-161, (4-{5-Amino-6-[1-(2,6-dichloro-phenyl)-ethoxy]-pyrazin-2-yl}-phenyl)-((R)-2-pyrrolidin-1-ylmethyl-pyrrolidin-1-yl)-methanone] has an IC50 of 160 nM. Compound `CC(Oc1nc(-c2ccc(C(=O)N3CCC[C@H]3CN3CCCC3)cc2)cnc1N)c1c(Cl)cccc1Cl` (stereo partly drawn) [II-162, (4-{5-Amino-6-[1-(2,6-dichloro-phenyl)-ethoxy]-pyrazin-2-yl}-phenyl)-((S)-2-pyrrolidin-1-ylmethyl-pyrrolidin-1-yl)-methanone] has an IC50 of 140 nM. For `CC(Oc1nc(-c2ccc(C(=O)N3CCN(C)CC3)cc2)cnc1N)c1c(Cl)cccc1Cl` (stereo not drawn) [II-163, (4-{5-Amino-6-[1-(2,6-dichloro-phenyl)-ethoxy]-pyrazin-2-yl}-phenyl)-(4-methyl-piperazin-1-yl)-methanone], the IC50 was 150 nM. For `CC(Oc1nc(-c2ccc(C(=O)N3CC[C@@H](N)C3)cc2)cnc1N)c1c(Cl)cccc1Cl` (stereo partly drawn) [II-164, (4-{5-Amino-6-[1-(2,6-dichloro-phenyl)-ethoxy]-pyrazin-2-yl}-phenyl)-((R)-3-aminopyrrolidin-1-yl)-methanone], the IC50 was 150 nM. For `CC(Oc1nc(-c2ccc(C(=O)N3CC[C@H](N)C3)cc2)cnc1N)c1c(Cl)cccc1Cl` (stereo partly drawn) [II-165, (4-{5-Amino-6-[1-(2,6-dichloro-phenyl)-ethoxy]-pyrazin-2-yl}-phenyl)-((S)-3-aminopyrrolidin-1-yl)-methanone hydrogen chloride], the IC50 was 100 nM. `CC(Oc1nc(-c2ccc(C(=O)NCCN3CCCC3)cc2)cnc1N)c1c(Cl)cccc1Cl` (stereo not drawn) [II-166, 4-{5-Amino-6-[1-(2,6-dichloro-phenyl)-ethoxy]-pyrazin-2-yl}-N-(2-pyrrolidin-1-yl-ethyl)-benzamide] gave an IC50 of 110 nM. In the case of `CC(Oc1nc(-c2ccc(C(=O)NCCCN3CCCC3)cc2)cnc1N)c1c(Cl)cccc1Cl` (stereo not drawn) [II-167, 4-{5-Amino-6-[1-(2,6-dichloro-phenyl)-ethoxy]-pyrazin-2-yl}-N-(3-pyrrolidin-1-yl-propyl)-benzamide], the IC50 is reported as 220 nM. For `CC(Oc1nc(-c2cccc(C(=O)NC3CCN(C)CC3)c2)cnc1N)c1c(Cl)cccc1Cl` (stereo not drawn) [II-169, 3-{5-Amino-6-[1-(2,6-dichloro-phenyl)-ethoxy)-pyrazin-2-yl}-N-(1-methyl-piperidin-4-yl)-benzamide], the IC50 was 180 nM. `CC(Oc1nc(-c2cccc(C(=O)NCCN3CCCC3)c2)cnc1N)c1c(Cl)cccc1Cl` (stereo not drawn) [II-170, 3-{5-Amino-6-[1-(2,6-dichloro-phenyl)-ethoxy]-pyrazin-2-yl}-N-(2-pyrrolidin-1-yl-ethyl)-benzamide] was tested, and the IC50 was 330 nM. `CC(Oc1nc(-c2cccc(C(=O)N3C[C@@H](C)N[C@@H](C)C3)c2)cnc1N)c1c(Cl)cccc1Cl` (stereo partly drawn) [II-171, (3-{5-Amino-6-[1-(2,6-dichloro-phenyl)-ethoxy]-pyrazin-2-yl}-phenyl)-((3R,5S)-3,5-dimethyl-piperazin-1-yl)-methanone] was tested, and the IC50 was 360 nM. `CC(Oc1nc(-c2cccc(C(=O)NCCN3CCOCC3)c2)cnc1N)c1c(Cl)cccc1Cl` (stereo not drawn) [II-172, 3-{5-Amino-6-[1-(2,6-dichloro-phenyl)-ethoxy]-pyrazin-2-yl}-N-(2-morpholin-4-yl-ethyl)-benzamide] gave an IC50 of 480 nM. `CC(Oc1nc(-c2cccc(C(=O)N3CCC[C@H]3CN3CCCC3)c2)cnc1N)c1c(Cl)cccc1Cl` (stereo partly drawn) [II-173, (3-{5-Amino-6-[1-(2,6-dichloro-phenyl)-ethoxy]-pyrazin-2-yl}-phenyl)-((S)-2-pyrrolidin-1-ylmethyl-pyrrolidin-1-yl)-methanone] gave an IC50 of 180 nM. `CC(Oc1nc(-c2cccc(C(=O)N3CCC(N4CCCC4)CC3)c2)cnc1N)c1c(Cl)cccc1Cl` (stereo not drawn) [II-174, (3-{5-Amino-6-[1-(2,6-dichloro-phenyl)-ethoxy]-pyrazin-2-yl}-phenyl)-(4-pyrrolidin-1-yl-piperidin-1-yl)-methanone] was tested, and the IC50 was 170 nM. With `CC(=O)N1CCN(CCNC(=O)c2ccc(-c3cnc(N)c(OC(C)c4c(Cl)cccc4Cl)n3)cc2)CC1` (stereo not drawn) [II-175, N-[2-(4-Acetyl-piperazin-1-yl)-ethyl]-4-{5-amino-6-[1-(2,6-dichloro-phenyl)-ethoxy]-pyrazin-2-yl}-benzamide] the IC50 was 280 nM. With `CC(=O)N1CCN(CCNC(=O)c2cccc(-c3cnc(N)c(OC(C)c4c(Cl)cccc4Cl)n3)c2)CC1` (stereo not drawn) [II-176, N-[2-(4-Acetyl-piperazin-1-yl)-ethyl]-3-{5-amino-6-[1-(2,6-dichloro-phenyl)-ethoxy]-pyrazin-2-yl}-benzamide] the IC50 was 350 nM. In the case of `CC(Oc1nc(-c2cccc(C(=O)N3CCC[C@@H]3CN3CCCC3)c2)cnc1N)c1c(Cl)cccc1Cl` (stereo partly drawn) [II-177, (3-{5-Amino-6-[1-(2,6-dichloro-phenyl)-ethoxy]-pyrazin-2-yl}-phenyl)-((R)-2-pyrrolidin-1-ylmethyl-pyrrolidin-1-yl)-methanone], the IC50 is reported as 330 nM. Work on `CC(Oc1nc(-c2cccc(C(=O)NCCCN3CCCC3)c2)cnc1N)c1c(Cl)cccc1Cl` (stereo not drawn) [II-178, 3-{5-Amino-6-[1-(2,6-dichloro-phenyl)-ethoxy]-pyrazin-2-yl}-N-(3-pyrrolidin-1-yl-propyl)-benzamide] yielded an IC50 of 340 nM. Compound `CC(Oc1nc(-c2cccc(C(=O)N3CC[C@H](N)C3)c2)cnc1N)c1c(Cl)cccc1Cl` (stereo partly drawn) [II-179, (3-{5-Amino-6-[1-(2,6-dichloro-phenyl)-ethoxy]-pyrazin-2-yl}-phenyl)-((S)-3-amino-pyrroldin-1-yl)-methanone] has an IC50 of 110 nM. Work on `CC(Oc1nc(-c2cccc(C(=O)N3CC[C@@H](N)C3)c2)cnc1N)c1c(Cl)cccc1Cl` (stereo partly drawn) [II-180, (3-{5-Amino-6-[1-(2,6-dichloro-phenyl)-ethoxy]-pyrazin-2-yl}-phenyl)-((R)-3-amino-pyrrolidin-1-yl)-methanone hydrochloride salt] yielded an IC50 of 180 nM.
